In experiment [1] the test system is MLKL phosphorylation in HT29-L23 human colorectal adenocarcinoma cells. Description: MLKL Phosphorylation High-Content Assay. The experiment is classed as cell-based. The conditions noted are these: Homo sapiens. An outline of the steps: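 IC50 and Ymax obtained by 4-parameter logistic fitting of MLKL phosphorylation, measured as mean circ-ring average intensity ratio from high-content images. Staining used an anti-phospho-S358 MLKL antibody overnight at 4° C., following six-hour cell incubation at 37° C.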

Experiment [2] deals with T1, His-GST-TVMV-hRIPK1(1-324) (Homo sapiens, UniProt Q13546).
T1 construct: The coding region of human RIPK1(1-324) flanked by NdeI site at 5′ end; made in house; host or cells: Spodoptera frugiperda (Sf9) insect cells, baculovirus
T1 sequence (Q13546 1-324): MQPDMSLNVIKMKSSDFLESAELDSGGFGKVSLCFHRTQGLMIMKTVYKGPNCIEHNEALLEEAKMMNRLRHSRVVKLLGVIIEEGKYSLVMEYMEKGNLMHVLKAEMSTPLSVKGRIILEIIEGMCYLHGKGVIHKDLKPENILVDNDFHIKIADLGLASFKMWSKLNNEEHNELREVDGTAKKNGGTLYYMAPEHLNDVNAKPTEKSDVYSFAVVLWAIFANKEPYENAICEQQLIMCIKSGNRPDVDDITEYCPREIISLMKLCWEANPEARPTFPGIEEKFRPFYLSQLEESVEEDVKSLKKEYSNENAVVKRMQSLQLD
In words: RIPK1 HTRF Binding Assay.

[3] abbreviates: x marks IC50 class 20-200 nM, read-out: pMLKL cell activity 20-200 nM.
Setting [4] is: x marks IC50 class >200 nM, read-out: RIPK1 HTRF binding >200 nM.
The mark [5] stands for this setting: x marks IC50 class <20 nM, read-out: pMLKL cell activity <20 nM.
Setting [6] is: x marks IC50 class <20 nM, read-out: RIPK1 HTRF binding <20 nM.
Setting [7] is: x marks IC50 class >200 nM, read-out: pMLKL cell activity >200 nM.
[8] abbreviates: x marks IC50 class 20-200 nM, read-out: RIPK1 HTRF binding 20-200 nM.

Read-outs that look alike come from different tables or passages of the source.

With `CCOc1ncc(-c2ccn3nc(N)nc3c2)cc1C(=O)NC[C@H]1C[C@@H]1COc1ccc(Br)cc1F` [Example 273, 5-{2-amino-[1,2,4]triazolo[1,5-a]pyridin-7-yl}-N-{[(1S,2S)-2-[(4-bromo-2-fluorophenoxy)methyl]cyclopropyl]methyl}-2-ethoxypyridine-3-carboxamide], the IC50 in experiment [1] (setting [3]) is 20 to 200 nM; in experiment [2] (setting [4]), greater than 200 nM.

Take `CCOc1ncc(-c2ccn3nc(N)nc3c2)cc1C(=O)NCC1(c2ccccc2F)CC1` [Example 274, 5-{2-amino-[1,2,4]triazolo[1,5-a]pyridin-7-yl}-2-ethoxy-N-{[1-(2-fluorophenyl)cyclopropyl]methyl}pyridine-3-carboxamide]: the figures for the IC50 in experiment [1] (setting [3]) and in experiment [2] (setting [4]) were 20 to 200 nM and greater than 200 nM, respectively.

On to `CCOc1ncc(-c2ccn3nc(N)nc3c2)cc1C(=O)NCc1ccccc1Sc1ccccc1CO` [Example 275, 5-{2-amino-[1,2,4]triazolo[1,5-a]pyridin-7-yl}-2-ethoxy-N-[(2-{[2-(hydroxymethyl)phenyl]sulfanyl}phenyl)methyl]pyridine-3-carboxamide], for which the IC50 in experiment [1] (setting [5]) and in experiment [2] (setting [6]) was less than 20 nM throughout.

In the case of `CCOc1ncc(-c2ccn3nc(N)nc3c2)cc1C(=O)NCC[C@@H](O)c1ccc(Cl)cc1` [Example 276, 5-{2-amino-[1,2,4]triazolo[1,5-a]pyridin-7-yl}-N-[(3R)-3-(4-chlorophenyl)-3-hydroxypropyl]-2-ethoxypyridine-3-carboxamide], the IC50 in experiment [1] (setting [7]) and in experiment [2] (setting [4]) was greater than 200 nM each time.

`CCOc1ncc(-c2ccn3nc(N)nc3c2)cc1C(=O)NCc1ccccc1Oc1ccccc1` [Example 277, 5-{2-amino-[1,2,4]triazolo[1,5-a]pyridin-7-yl}-2-ethoxy-N-[(2-phenoxyphenyl)methyl]pyridine-3-carboxamide]: the IC50 in experiment [1] (setting [5]) and in experiment [2] (setting [6]) was less than 20 nM in each case.

As for `CCOc1ncc(-c2ccn3nc(N)nc3c2)cc1C(=O)NCC[C@H](O)c1ccc(Cl)cc1` [Example 278, 5-{2-amino-[1,2,4]triazolo[1,5-a]pyridin-7-yl}-N-[(3S)-3-(4-chlorophenyl)-3-hydroxypropyl]-2-ethoxypyridine-3-carboxamide], the IC50 is greater than 200 nM in experiment [1] (setting [7]) and 20 to 200 nM in experiment [2] (setting [8]).

With `CCOc1ncc(-c2ccn3nc(N)nc3c2)cc1C(=O)Nc1cnn(Cc2ccccc2)c1` [Example 279, 5-{2-amino-[1,2,4]triazolo[1,5-a]pyridin-7-yl}-N-(1-benzyl-1H-pyrazol-4-yl)-2-ethoxypyridine-3-carboxamide], the IC50 in experiment [1] (setting [3]) and in experiment [2] (setting [8]) was 20 to 200 nM each time.

As for `CCOc1ncc(-c2ccn3nc(N)nc3c2)cc1C(=O)NCCC(C)c1ccccc1` (stereo not shown) [Example 280, 5-{2-amino-[1,2,4]triazolo[1,5-a]pyridin-7-yl}-2-ethoxy-N-(3-phenylbutyl)pyridine-3-carboxamide], the IC50 in experiment [1] (setting [3]) was 20 to 200 nM; in experiment [2] (setting [6]), less than 20 nM.

As for `CCOc1ncc(-c2ccn3nc(N)nc3c2)cc1C(=O)NCc1cc(F)cc(F)c1OCC1CC1` [Example 281, 5-{2-amino-[1,2,4]triazolo[1,5-a]pyridin-7-yl}-N-{[2-(cyclopropylmethoxy)-3,5-difluorophenyl]methyl}-2-ethoxypyridine-3-carboxamide], the IC50 in experiment [1] (setting [3]) is 20 to 200 nM; in experiment [2] (setting [6]), less than 20 nM.

Regarding `[2H]C([2H])([2H])Oc1nc(C)c(-c2ccn3nc(N)nc3c2)cc1C(=O)NCc1cc(F)cc(F)c1OC([2H])([2H])C1CC1` [Example 282, 5-(2-Amino-[1,2,4]triazolo[1,5-a]pyridin-7-yl)-N-(2-(cyclopropylmethoxy-d2)-3,5-difluorobenzyl)-2-(methoxy-d3)-6-methylnicotinamide], the IC50 in experiment [1] (setting [5]) and in experiment [2] (setting [6]) was less than 20 nM in each case.

In the case of `[2H]C([2H])([2H])Oc1ncc(-c2ccn3nc(N)nc3c2)cc1C(=O)NCc1cc(F)cc(F)c1OC([2H])([2H])C1CC1` [Example 283, 5-(2-amino-[1,2,4]triazolo[1,5-a]pyridin-7-yl)-N-(2-(cyclopropylmethoxy-d2)-3,5-difluorobenzyl)-2-(methoxy-H3)nicotinamide], the IC50 in experiment [1] (setting [5]) and in experiment [2] (setting [6]) was less than 20 nM each time.
